Experiments:
Assay type in all cases: cell-based
[1] = tested on: Staphylococcus aureus; test: Agar plate disc-diffusion, antibacterial inhibition zone; conditions: Gram positive, nutrient agar, 37° C.
Protocol: (§1) The agar plate disc-diffusion method was applied. […] The discs were then placed onto the surface of agar plates (nutrient agar for bacteria and Sabouraud's dextrose agar for fungi) seeded with the test organism. Each plate contained 15 mL of the agar medium, previously seeded with 0.2 mL of the broth culture of each organism pregrown for 18 hours. The plates were incubated at 37° C. for 48 hours and 72 hours for fungi. The inhibition zones were measured in mm. Discs impregnated with DMSO were used as a control, and their inhibition zone was subtracted from the tested compound's actual inhibition zone.

[2] = tested on: Bacillus cereus; test: as above; conditions: Gram positive, nutrient agar, 37° C.
Protocol: as §1

[3] = tested on: Pseudomonas aeruginosa; test: as above; conditions: Gram negative, nutrient agar, 37° C.
Protocol: as §1

[4] = tested on: Escherichia coli; test: as above; conditions: Gram negative, nutrient agar, 37° C.
Protocol: as §1

[5] = tested on: Chrysosporium keratinophilum; test: Agar plate disc-diffusion, antifungal inhibition zone; conditions: Sabouraud's dextrose agar, 72 hours
Protocol: as §1

[6] = tested on: Aspergillus flavus; test: as above; conditions: Sabouraud's dextrose agar, 72 hours
Protocol: as §1

[7] = A = concentration of comp. = 10,000 μL
[8] = B = concentration of comp. = 30,000 μL
[9] = C = concentration of comp. = 50,000 μL

Structure (SMILES): N/C(=N\OC(=O)CSc1nnc(-c2ccc(Cl)cc2)o1)c1ccc([N+](=O)[O-])cc1 [Compound 3, N′-(2-(5-(4-chlorophenyl)-1,3,4-oxadiazol-2-ylthio)acetoxy)-4-nitrobenzimidamide]
- inhibition zone, Staphylococcus aureus, A [1, 7]: 17 mm
- inhibition zone, Staphylococcus aureus, B [1, 8]: 20 mm
- inhibition zone, Staphylococcus aureus, C [1, 9]: 37 mm
- inhibition zone, Bacillus Cereus, A [2, 7]: 27 mm
- inhibition zone, Bacillus Cereus, B [2, 8]: 29 mm
- inhibition zone, Bacillus Cereus, C [2, 9]: 40 mm
- inhibition zone, Pseudomonas aeruginosa, A [3, 7]: 22 mm
- inhibition zone, Pseudomonas aeruginosa, B [3, 8]: 26 mm
- inhibition zone, Pseudomonas aeruginosa, C [3, 9]: 40 mm
- inhibition zone, Escherichia coli, A [4, 7]: 27 mm
- inhibition zone, Escherichia coli, B [4, 8]: 31 mm
- inhibition zone, Escherichia coli, C [4, 9]: 50 mm
- inhibition zone, Chrysosporium keratinophilum, A ([5]; A =): 26 mm
- inhibition zone, Chrysosporium keratinophilum, B [5, 8]: 28 mm
- inhibition zone, Chrysosporium keratinophilum, C [5, 9]: 41 mm
- inhibition zone, Aspergillus flavus, A [6, 7]: 23 mm
- inhibition zone, Aspergillus flavus, B [6, 8]: 27 mm
- inhibition zone, Aspergillus flavus, C [6, 9]: 39 mm

— patent US11905264B1, “N′-(2-(5-(4-chlorophenyl)-1,3,4-oxadiazol-2-ylthio)acetoxy)-4-nitrobenzimidamide as an antimicrobial compound” (KING FAISAL UNIVERSITY, priority 2023, dated 2024)
